One molecule from patent US20050059032A1, “Methods & compositions relating to drug-induced arrhythmia” (Pfizer Inc, priority 2002, published 2005) can be followed below.

The test system of the data set is patients with congestive heart failure or recent myocardial infarction. The following applies: human, in vivo. An excerpt: Genomic DNA samples were obtained from the blood samples of patients enrolled in the DIAMOND study (Danish Investigations of Arrhythmia and Mortality on Dofetilide) or a clinical protocol similar in nature to the DIAMOND Study. These studies focused on the effects of Dofetilide on two populations of patients, one with congestive heart failure and one with recent myocardial infarction associated with left ventricular dysfunction (ejection fraction <35%) (Moller, M., (1996) Lancet, 348(9041):1597-8; Moller, M. et al., (1997) Congest Heart Fail., 7(3):146-150). DNA samples were obtained from 105 patients in total. Of the 105 patients, 7 developed torsade de pointes (TdP) upon treatment with Dofetilide while the remaining 98 patients responded to treatment without developing TdP as a side effect.

`CN(CCOc1ccc(NS(C)(=O)=O)cc1)CCc1ccc(NS(C)(=O)=O)cc1` [Dofetilide]: the “patients who developed torsade de pointes (TdP) upon treatment” value came out at 7.
